As usually defined, the IC50 is the concentration that inhibits the measured activity by half. What is called IC95 is the concentration needed for an effect of 95%.

SMILES strings stand for the structures. Where two headings read alike, the source gives them in different places.

One assay concerns the target wild-type HIV-1 protease (Human immunodeficiency virus type 1 group M subtype B, UniProt P04585). Put plainly: Assay for inhibition of microbial expressed HIV protease. Format: biochemical. As for the experimental part: Assay for Inhibition of Microbial Expressed HIV Protease
Inhibition studies of the reaction of the protease (which was expressed in Eschericia coli) with a peptide substrate [Val-Ser-Gln-Asn-(betanapthyl)Ala-Pro-Ile-Val]. The inhibitor is first preincubated with the enzyme in assay buffer (50 mM sodium acetate, pH 5.5, 100 mM NaCl, and 0.1% BSA) for 30 minutes at room temperature. Substrate is added to 440 micromolar in a total volume of 80 microliters containing 5 picomolar HIV-1 protease, and the reaction is incubated for 1 hour at 30° C. The reaction is quenched by addition of 120 microliters of 10% phosphoric acid, and product formation is determined after separation of product and substrate on a Vydac C18 column connected to an Alliance high performance liquid chromatography system (Waters Corporation). The extent of inhibition of the reaction is determined from the peak area of the products.

The subject of assay [1] is acute HIV infection of T-lymphoid cells. Put plainly: Assay for inhibition of HIV replication (spread assay). Format: cell-based, HIV-1. Here is the method:
• Assay for Inhibition of HIV Replication
Assays for the inhibition of acute HIV infection of T-lymphoid cells were conducted in accordance with Vacca, J. P. et al., Proc. Natl. Acad. Sci. USA 1994, 91: 4096.

[2] abbreviates: wild-type HIV-1 protease expressed in E. coli, peptide substrate, pH 5.5, read-out: Enzyme Inhibition - IC50.
The mark [3] stands for this setting: Human immunodeficiency virus 1, T-lymphoid, read-out: Spread - IC95.
The mark [4] stands for this setting: Human immunodeficiency virus 1, T-lymphoid, read-out: Spread - IC95 (nM).

As for `CC[C@@H](CCC[C@@H](CO)N(CCC(C)C)S(=O)(=O)c1ccc(N)cc1)NC(=O)[C@@H](NC(=O)OC)C1c2ccccc2Oc2ccccc21` [Example F11, methyl [2-({(1S,5S)-5-[[(4-aminophenyl)sulfonyl](3-methylbutyl)amino]-1-ethyl-6-hydroxyhexyl}amino)-2-oxo-1-(9H-xanthen-9-yl)ethyl]carbamate], the half-maximal inhibitory concentration (IC50) at wild-type HIV-1 protease (setting [2]) was 0.021 nM. Further, the IC95 in assay [1] (setting [3]) amounted to 38 nM.
For `COC(=O)N[C@H](C(=O)N[C@@H](C)CCC[C@@H](CO)N(C(C)C)S(=O)(=O)c1ccc(CO)cc1)C(c1ccccc1)c1ccccc1` [Example K1, N-{(1S,5S)-6-hydroxy-5-[{[4-(hydroxymethyl)phenyl]sulfonyl}(isopropyl)amino]-1-methylhexyl}-Nα-(methoxycarbonyl)-β-phenyl-L-phenylalaninamide] the same measures were 0.018 nM and 13 nM.
`CCCN([C@H](CO)CCC[C@H](CC)NC(=O)[C@@H](NC)C(c1ccccc1)c1ccccc1)S(=O)(=O)c1ccc(CO)cc1` [Example J38, N-{(1S,5S)-1-ethyl-6-hydroxy-5-[{[4-(hydroxymethyl)phenyl]sulfonyl}(propyl)amino]hexyl}-Nα-methyl-β-phenyl-L-phenylalaninamide]: the IC50 on wild-type HIV-1 protease (setting [2]) is 0.098 nM. Moreover, in assay [1] (setting [3]), the IC95 turned out to be 34 nM.
Regarding `CC[C@@H](CCC[C@@H](CO)N(CCC(C)C)S(=O)(=O)c1ccc(N)cc1)NC(=O)[C@@H](NC(=O)OC)C(c1ccccc1)c1ccccc1` [Example D2], the IC50 at wild-type HIV-1 protease (setting [2]) stood at 0.016 nM. Besides, the IC95 in assay [1] (setting [4]) amounted to 10 nM.
For `COC(=O)N[C@H](C(=O)N[C@@H](C)CCC[C@@H](CO)N(CC(C)C)S(=O)(=O)c1ccc(N)cc1)C(c1ccccc1)c1ccccc1` [Example D9, N-{(1S,5S)-5-[[(4-aminophenyl)sulfonyl](isobutyl)amino]-6-hydroxy-1-methylhexyl}-Nα-(methoxycarbonyl)-β-phenyl-L-phenylalaninamide], on wild-type HIV-1 protease (setting [2]), the IC50 was found to be 0.035 nM. In assay [1] (setting [3]), the IC95 is 8 nM.
Take `CCCN([C@H](CO)CCC[C@@H](NC(=O)[C@@H](NC(=O)OC)C(c1ccccc1)c1ccccc1)C(F)(F)F)S(=O)(=O)c1ccc(N)cc1` [Example H1, N-[(1R,5S)-5-[[(4-aminophenyl)sulfonyl](propyl)amino]-6-hydroxy-1-(trifluoromethyl)hexyl]-Nα-(methoxycarbonyl)-β-phenyl-L-phenylalaninamide]: the concentration for half-maximal inhibition (IC50) at wild-type HIV-1 protease (setting [2]) was determined as 0.022 nM. The IC95 in assay [1] (setting [4]) came out at 14 nM.
Turning to `CCN([C@H](CO)CCC[C@H](C)NC(=O)[C@@H](NC(=O)OC)C(c1ccccc1)c1ccccc1)S(=O)(=O)c1ccc(N)cc1` [Example G5, N-{(1S,5S)-5-[[(4-aminophenyl)sulfonyl](ethyl)amino]-6-hydroxy-1-methylhexyl}-Nα-(methoxycarbonyl)-β-phenyl-L-phenylalaninamide], the IC50 on wild-type HIV-1 protease (setting [2]) was 0.378 nM. Also, the IC95 in assay [1] (setting [3]) worked out at 64 nM.
For the molecule `COC(=O)N[C@H](C(=O)N[C@@H](C)CCC[C@@H](CO)N(C(C)C)S(=O)(=O)c1ccc(N)cc1)C(c1cccc(F)c1)c1cccc(F)c1` [Example F15, N-{(1S,5S)-5-[[(4-aminophenyl)sulfonyl](isopropyl)amino]-6-hydroxy-1-methylhexyl}-3-fluoro-β-(3-fluorophenyl)-Nα-(methoxycarbonyl)-L-phenylalaninamide], on wild-type HIV-1 protease (setting [2]), the IC50 was determined as 0.01 nM. Further, the IC95 in assay [1] (setting [3]) worked out at 16 nM.
For `COC(=O)N[C@H](C(=O)NC(C)(C)CCC[C@@H](CO)N(CC(C)C)S(=O)(=O)c1ccc(N)cc1)C(c1ccccc1)c1ccccc1` [Example L5, N-{(5S)-5-[[(4-aminophenyl)sulfonyl](isobutyl)amino]-6-hydroxy-1,1-dimethylhexyl}-Nα-(methoxycarbonyl)-β-phenyl-L-phenylalaninamide] the same measures were 0.154 nM and 185 nM.
As for `COC(=O)N[C@H](C(=O)NC1(CCCC(CO)N(CCC(C)C)S(=O)(=O)c2ccc(N)cc2)CCC1)C(c1ccccc1)c1ccccc1` (stereo partly drawn) [Example L3, N-(1-{4-[[(4-aminophenyl)sulfonyl](3-methylbutyl)amino]-5-hydroxypentyl}cyclobutyl)-Nα-(methoxycarbonyl)-β-phenyl-L-phenylalaninamide], the IC50 at wild-type HIV-1 protease (setting [2]) is 0.234 nM. Besides, the IC95 in assay [1] (setting [3]) came to 471 nM.
The molecule `COC(=O)N[C@H](C(=O)N[C@H](CCC[C@@H](CO)N(CCC(C)C)S(=O)(=O)c1ccc(N)cc1)C1CC1)C(c1ccccc1)c1ccccc1` [Example E1] yielded a half-maximal inhibitory concentration (IC50) at wild-type HIV-1 protease of 0.03 nM. Further, in assay [1] (setting [3]), the IC95 is 11 nM.
On to `C=C[C@@H](CCC[C@@H](CO)N(CCC(C)C)S(=O)(=O)c1ccc(CO)cc1)NC(=O)[C@@H](NC(=O)OC)C(c1ccccc1)c1ccccc1` [Example J10, N-{(1R,5S)-6-hydroxy-5-[{[4-(hydroxymethyl)phenyl]sulfonyl}(3-methylbutyl)amino]-1-vinylhexyl}-Nα-(methoxycarbonyl)-β-phenyl-L-phenylalaninamide], for which, on wild-type HIV-1 protease (setting [2]), the IC50 came to 0.005 nM. For the same molecule, the IC95 in assay [1] (setting [3]) is 4 nM.
The like results for `COC(=O)N[C@H](C(=O)N[C@H](C)CCC[C@@H](CO)N(CCC(C)C)S(=O)(=O)c1ccc(N)cc1)C(c1ccccc1)c1ccccc1` (single isomer, unassigned) [D1(S)] were, in that order, 0.008 nM and 7 nM.
Take `CCC[C@@H](CCC[C@@H](CO)N(CCCF)S(=O)(=O)c1ccc(N)cc1)NC(=O)[C@@H](NC(=O)OC)C(c1ccccc1)c1ccccc1` [Example D13, N-{(1S,5S)-5-[[(4-aminophenyl)sulfonyl](3-fluoropropyl)amino]-6-hydroxy-1-propylhexyl}-Nα-(methoxycarbonyl)-β-phenyl-L-phenylalaninamide]: the IC50 at wild-type HIV-1 protease (setting [2]) is 0.867 nM. Moreover, the concentration for an effect of 95% (IC95) in assay [1] (setting [3]) stood at 213 nM.
Consider `COC(=O)N[C@H](C(=O)N[C@H](CCC[C@@H](CO)N(C(C)C)S(=O)(=O)c1ccc(N)cc1)C1CC1)C(c1ccccc1)c1ccccc1` [Example I8, N-{(1R,5S)-5-[[(4-aminophenyl)sulfonyl](isopropyl)amino]-1-cyclopropyl-6-hydroxyhexyl}-Nα-(methoxycarbonyl)-β-phenyl-L-phenylalaninamide], for which, on wild-type HIV-1 protease (setting [2]), the concentration for half-maximal inhibition (IC50) came to 0.346 nM. Besides, the concentration for an effect of 95% (IC95) in assay [1] (setting [3]) was 43 nM.
Consider `CC[C@@H](CCC[C@@H](CO)N(CCC(C)C)S(=O)(=O)c1ccc(N)cc1)NC(=O)[C@@H](NC(=O)OC)C1c2ccccc2C=Cc2ccccc21` [Example F6, methyl [2-({(1S,5S)-5-[[(4-aminophenyl)sulfonyl](3-methylbutyl)amino]-1-ethyl-6-hydroxyhexyl}amino)-1-(5H-dibenzo[a,d][7]annulen-5-yl)-2-oxoethyl]carbamate], for which, on wild-type HIV-1 protease (setting [2]), the IC50 was 0.01 nM. Also, the IC95 in assay [1] (setting [3]) was 10 nM.
Take `COC(=O)N[C@H](C(=O)NC(C)(C)CCC[C@@H](CO)N(CCC(C)C)S(=O)(=O)c1ccc(N)cc1)C(c1ccccc1)c1ccccc1` [Example L4, N-{(5S)-5-[[(4-aminophenyl)sulfonyl](3-methylbutyl)amino]-6-hydroxy-1,1-dimethylhexyl}-Nα-(methoxycarbonyl)-β-phenyl-L-phenylalaninamide]: the IC50 at wild-type HIV-1 protease (setting [2]) is 0.01 nM. Besides, the 95% effect concentration (IC95) in assay [1] (setting [3]) was 41 nM.
As to `COC(=O)N[C@H](C(=O)NC(C)(C)CCC[C@@H](CO)N(CCCF)S(=O)(=O)c1ccc(N)cc1)C(c1ccccc1)c1ccccc1` [Example L7, N-{(5S)-5-[[(4-aminophenyl)sulfonyl](3-fluoropropyl)amino]-6-hydroxy-1,1-dimethylhexyl}-Nα-(methoxycarbonyl)-β-phenyl-L-phenylalaninamide], at wild-type HIV-1 protease (setting [2]), the IC50 was 0.062 nM. Moreover, the IC95 in assay [1] (setting [3]) is 178 nM.
Consider `COC(=O)N[C@@H](Cc1ccccc1Br)C(=O)N[C@@H](C)CCC[C@@H](CO)N(CC(C)C)S(=O)(=O)c1ccc(CO)cc1` [Example G12, 2-bromo-N-{(1S,5S)-6-hydroxy-5-[{[4-(hydroxymethyl)phenyl]sulfonyl}(isobutyl)amino]-1-methylhexyl}-Nα-(methoxycarbonyl)-L-phenylalaninamide], for which the IC50 on wild-type HIV-1 protease (setting [2]) is 0.055 nM. Besides, the IC95 in assay [1] (setting [3]) stood at 15 nM.
Regarding `COC(=O)N[C@H](C(=O)N[C@H](CCC[C@@H](CO)N(C(C)C)S(=O)(=O)c1ccc(N)cc1)C(F)(F)F)C(c1ccccc1)c1ccccc1` [Example H3, N-[(1R,55)-5-[[(4-aminophenyl)sulfonyl](isopropyl)amino]-6-hydroxy-1-(trifluoromethyl)hexyl]-Nα-(methoxycarbonyl)-β-phenyl-L-phenylalaninamide], on wild-type HIV-1 protease (setting [2]), the IC50 is 0.076 nM. In addition, the IC95 in assay [1] (inhibition of HIV-1 replication, 10% FBS, read-out: Spread - IC95) is reported as 18 nM.
For `COC(=O)N[C@H](C(=O)N[C@@H](C)CCC[C@@H](CO)N(C(C)C)S(=O)(=O)c1ccc(C(C)=O)cc1)C(c1ccccc1)c1ccccc1` [Example K5, N-{(1S,5S)-5-[[(4-acetylphenyl)sulfonyl](isopropyl)amino]-6-bydroxy-1-methylhexyl}-Nα-(methoxycarbonyl)-β-phenyl-L-phenylalaninamide], the IC50 on wild-type HIV-1 protease (setting [2]) worked out at 0.284 nM. Also, in assay [1] (setting [3]), the concentration for an effect of 95% (IC95) amounted to 41 nM.

The values are drawn from patent US20100093811A1 (priority 2007, published 2010).
